# Reference: patent US10870625B2, “Zwitterionic propargyl-linked antifolates useful for treating bacterial infections” (THE UNIVERSITY OF CONNECTICUT, priority 2016, dated 2020)
# Where two headings read alike, the source gives them in different places.
# Experiments:
# Mtb Erdman = Mtb Erdman MIC, microtiter broth dilution; type: cell-based, Mycobacterium tuberculosis
# Procedure: (§1) (provided by Leonid Heifets).
# (§2) Each isolate was tested in duplicate.
# Mtb 5 = type: cell-based, Mycobacterium tuberculosis; details: XDR strain
# MtbDHFR [1] = target: T1, MtbDHFR (Mycobacterium tuberculosis (strain ATCC 25618 / H37Rv), UniProt P9WNX1); assay: M. tuberculosis DHFR enzyme inhibition; type: biochemical
# E. coli (Ec) DHFR = E. coli (Ec) DHFR (Escherichia coli (strain K12), UniProt P0ABQ4); assay: E. coli DHFR enzyme inhibition (NADPH oxidation, 340 nm); type: biochemical; details: Table 2
# E. coli (ATCC 25922) = assay: E. coli MIC, microdilution broth assay; type: cell-based, Escherichia coli; details: Table 2; wild-type E. coli
# Procedure: Minimum inhibitory concentrations were determined using E. coli (ATCC 25922) and the microdilution broth assay with an inoculum of […] CFU/mL in Isosensitest Broth (Oxoid).
# Mtb 365 = type: cell-based, Mycobacterium tuberculosis; details: MDR strain
# E. coli NR698 = type: cell-based, Escherichia coli; details: Table 2
# Mtb 56 = type: cell-based, Mycobacterium tuberculosis; details: MDR strain
# [2] = test system: S. aureus ATCC strain 43300; assay: microbe, parasite or virus in culture; type: cell-based, Staphylococcus aureus; details: for MIC Sa43300: Table 12, wild-type strain
# CYP3A4 = CYP3A4 (Homo sapiens (Human), UniProt P08684); assay: Cytochrome P450 inhibition, CYP3A4
# Mtb C-31 = type: cell-based, Mycobacterium tuberculosis; details: MDR strain
# CYP2D6 = CYP2D6 (Homo sapiens (Human), UniProt P10635); assay: Cytochrome P450 inhibition, CYP2D6
# [3] = Microsomal stability assay (UPLC of parent compound)
# Mtb = assay: M. tuberculosis MIC, microtiter broth dilution (Table 6); type: cell-based, Mycobacterium tuberculosis
# Procedure: as §1, §2
# Mtb 352 = type: cell-based, Mycobacterium tuberculosis; details: MDR strain
# Sa(H30N) strain [4] = test system: Sa(H30N) strain
# Mtb 276 = type: cell-based, Mycobacterium tuberculosis; details: MDR strain
# S. aureus (Sa) DHFR = S. aureus (Sa) DHFR (Staphylococcus aureus, UniProt P0A017); type: biochemical; details: Table 2
# [5] = test system: methicillin-resistant S. aureus (MRSA); details: background; cited from earlier work
# [6] = test system: wild-type Gram-negative E. coli; details: background; cited from earlier work
# [7] = test system: E. coli, efflux pumps genetically deleted; details: background; cited from earlier work
# MtbDHFR [8] = target: T1, MtbDHFR; details: data from Nixon et al., Chem. Biol. (2014); cited from earlier work
# Sa(H30N) strain [9] = assay: microbe, parasite or virus in culture; details: Staphylococcus aureus, read-out: MIC Sa(H30N)
# Sa43300 [10] = details: previously reported studies, S. aureus 43300; cited from earlier work
# Sa43300 [11] = type: cell-based, Staphylococcus aureus; details: progenitor Sa43300, 6× MIC
# human (Hu) DHFR = human (Hu) DHFR (Homo sapiens (Human), UniProt P00374); assay: Human DHFR enzyme inhibition (Example 5); type: biochemical; details: Table 2
compound,measurement,setting,value
CCc1nc(N)nc(N)c1C#CCc1cc(-c2ccc(C(=O)O)cc2)ccc1OC [Compound 15],MIC Mtb Erdman,Mtb Erdman,16 µg/mL
same,MIC Mtb 5,Mtb 5,8 µg/mL
same,IC50,MtbDHFR [1],173 nM
same,IC50,E. coli (Ec) DHFR,90 nM
same,MIC E. coli 25922,E. coli (ATCC 25922),>20 µg/mL
same,MIC Mtb 365,Mtb 365,4 µg/mL
same,MIC E. coli NR698,E. coli NR698,0.0098 µg/mL
same,MIC Mtb56,Mtb 56,16 µg/mL
same,MIC S. aureus 43300,[2],0.0195 µg/mL
same,MIC Sa43300,[2],0.0195 µg/mL
same,concentration required for inhibition of CYP3A4,CYP3A4,greater than 50 μM
same,MIC Mtb C-31,Mtb C-31,>32 µg/mL
same,concentration required for inhibition of CYP2D6,CYP2D6,greater than 50 μM
same,phase I half-life,[3]; phase I,99 min
same,phase II half-life,[3]; phase II,approximately 87 min
same,MIC Mtb,Mtb,4 µg/mL
same,MIC Mtb 352,Mtb 352,16 µg/mL
same,MIC Sa(H30N),Sa(H30N) strain [4],0.1563 µg/mL
same,MIC Mtb 276,Mtb 276,16 µg/mL
same,IC50,S. aureus (Sa) DHFR,32 nM
CN(Cc1cnc2nc(N)nc(N)c2n1)c1ccc(C(=O)N[C@@H](CCC(=O)O)C(=O)O)cc1 [methotrexate],MIC50 MRSA,[5],20 µg/mL
same,MIC90 MRSA,[5],100 µg/mL
same,MIC wild-type E. coli,[6],over 1 mM
same,"MIC E. coli, efflux pumps genetically deleted",[7],64 to 256 µM
"COc1cc(NCc2ccc3nc(N)nc(N)c3c2C)cc(OC)c1OC [Trimetrexate, trimetrexate, reference compound]",MIC,Mtb; Mycobacterium tuberculosis,4 µg/mL
same,IC50,MtbDHFR [8],17 nM
CCc1nc(N)nc(N)c1C#CC(C)c1cc(OC)cc(-c2ccncc2)c1 (centres unmarked) [Compound A],MIC,"[2]; Staphylococcus aureus, ATCC43300, read-out: MIC Sa43300",0.0781 µg/mL
same,MIC,Sa(H30N) strain [9],2.5 µg/mL
same,mutation frequencies of mutants F98Y and F98I,Sa43300 [10],10^−10
same,Mutational Frequency of DHFR mutation F98Y,Sa43300 [11],3.11 × 10^−11
same,Mutational Frequency of DHFR mutation H30N,Sa43300 [11],4.67 × 10^−11
same,Mutational Frequency of DHFR mutation H149R,Sa43300 [11],1.65 × 10^−10
CCc1nc(N)nc(N)c1C#CC(SC)c1cc(-c2ccc(C(=O)O)cc2)ccc1OC (centres unmarked) [Compound 29],IC50,E. coli (Ec) DHFR,177 nM
same,MIC E. coli 25922,E. coli (ATCC 25922),>20 µg/mL
same,MIC E. coli NR698,E. coli NR698,0.0391 µg/mL
same,MIC S. aureus 43300,[2],0.625 µg/mL
same,MIC Sa43300,[2],0.0391 µg/mL
same,IC50,human (Hu) DHFR,266 nM
same,MIC Mtb,Mtb,0.5 µg/mL
same,MIC Sa(H30N),Sa(H30N) strain [4],0.1563 µg/mL
same,IC50,S. aureus (Sa) DHFR,37 nM
